Drawing on patent EP0181109B1, “N6-benzopyrano- and benzothiopyrano-adenosines” (WARNER-LAMBERT COMPANY, priority 1984, dated 1986), this text covers IC50, HR change and MAP change for 15 compounds.

One experiment deals with T1, adenosine A1 receptor (Rattus norvegicus, UniProt P25099).
T1 construct: Whole brain minus cerebellum and brainstem from male Long Evans rats (150-200 g) was homogenized; from tissue; host or cells: rat whole brain minus cerebellum and brainstem (membrane homogenate)
T1 sequence (P25099 1-326): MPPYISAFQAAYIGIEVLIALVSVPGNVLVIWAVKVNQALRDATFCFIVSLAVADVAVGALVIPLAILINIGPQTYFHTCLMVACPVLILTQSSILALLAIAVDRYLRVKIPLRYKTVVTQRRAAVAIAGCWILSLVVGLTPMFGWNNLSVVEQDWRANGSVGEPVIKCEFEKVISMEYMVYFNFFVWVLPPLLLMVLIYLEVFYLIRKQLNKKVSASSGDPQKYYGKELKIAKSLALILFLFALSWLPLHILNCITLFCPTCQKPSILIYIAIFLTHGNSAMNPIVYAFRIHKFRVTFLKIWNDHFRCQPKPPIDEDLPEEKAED
The experiment can be described thus: Adenosine Receptor Binding - A1 Receptor Affinity (RBA 1), [3H]-CHA displacement. As to conditions: rat whole brain membranes, 1.0 nM [3H]-CHA, one hour at 25°C. How it is done:
Whole brain minus cerebellum and brainstem from male Long Evans rats (150-200 g) was homogenized in 30 volumes of ice-cold 0.05 M Tris-HCI buffer pH 7.7 using a Brinkman Polytron PT-10, (setting number 6 for 20 seconds) and centrifuged for ten minutes at 20,000 x g (Sorvall RC-2), 4°C. The supernatant was discarded, and the pellet was resuspended and centrifuged as before. The pellet was resuspended in 20 ml Tris-HCI buffer containing two International Units/ml of adenosine deaminase (Sigma Type III from calf intestinal mucosa), incubated at 37°C for 30 minutes, then subsequently at 0°C for ten minutes. The homogenate was again centrifuged, and the final pellet was resuspended in ice-cold 0.05 M Tris-HCI buffer pH 7.7 to a concentration of 20 mg/ml original wet tissue weight and used immediately.
Tissue homogenate (10 mg/ml) was incubated in 0.05 M Tris-HCI buffer pH 7.7 containing 1.0 nM [^3H]-N^6-cyclohexyladenosine (^3H]-CHA) with or without test agents in triplicate for one hour at 25°C. Incubation volume was 2 ml. Unbound [^3H]-CHA was separated by rapid filtration under reduced pressure through Whatman glass fiber (GF/B) filters. The filters were rinsed three times with 5 ml of ice cold 0.05 M Tris-HCI buffer pH 7.7. The radio-labele ligand retained on the filter was measured by liquid scintillation spectrophotometry after shaking the filters for one hour or longer on a mechanical shaker in 10 ml of Beckman Ready-Solv HP scintillation cocktail.
Nonspecific binding was defined as the binding which occurred in the presence of 1 mM theophylline. The concentration of test agent which inhibited 50% of the specific binding (IC50) was determined by nonlinear computer curve fit. The Scatchard plot was calculated by linear regression of the line obtained by plotting the amount of radioligand bound (pmoles/gram of tissue) versus
• bound radioligand • free radioligand Since the amount of radioligand bound was a small fraction of the total amount added, free radioligand was defined as the concentration (nM) of radioligand added to the incubation mixture. The Hill coefficient was calculated by linear regression of the line obtained by plotting the log of the bound radioligand vs the log of the • bound radioligand • Bmax - bound radioligand • The maximal number of binding sites (Bmax) was calculated from the Scatchard plot.

Another experiment concerns conscious rat. The experiment in a line: Antihypertensive evaluation (AHP3): direct monitoring of aortic blood pressure and heart rate from conscious rats. The experiment is classed as in vivo. How it is done: This test procedure is described in the following paragraphs.
The continuous monitoring of pulsatile blood pressure (BP) from unrestrained conscious rats surgically equipped with polyethylene cannulas was accomplished by means of a computer assisted data capture scheme (CADCS). The basic elements of the methodology are the cannulation procedure and the CADCS.
Cannulation Procedure: Rats were anesthetized with Telazol (1:1 tiletamine HCI and zolazepam HCI); 20-40 mg/kg IM and the descending aorta exposed via a midline incision. Cannulas fabricated from polyethylene tubing were inserted into the aorta via an undersized puncture hole below the renal arteries. The puncture hole was made by a 23 G disposable needle with a section of the aorta clamped off above and below the puncture site. The cannulas, consisting of a PE100 (0.86 mm ID) body and a PE50 (0.58 mm ID) tip, were attached to a trocar, inserted through the psoas muscle, and passed subcutaneously along the midline of the back and externalized between the ears. The cannulas were anchored to the psoas muscle and between the scalulae (3-0 green braided suture). The midline incision was closed in two steps (muscle first, skin second) using continuous over-and over sutures (4-0 chronic). Each rat was then given penicillin 30,000 units subcutaneously (Penicillin G Procaine Sterile Suspension).
The rats were fitted with a harness-spring-swivel assembly designed to protect the cannula and to provide the rat relative freedom of movement. The harnesses were fabricated from nylon hook and loop tape cemented to a metal plate to which spring wires (18-8 stainless steel), were attached to brass swivels. Each polyethylene cannula was channeled through a spring and connected through a swivel to a pressure transducer (Model P23Gb; Statham Instruments; Hato Rey, Puerto Rico) and an infusion pump (Sage model 234-7; Orion Research, Cambridge, MA) by means of PE100 tubing. While on test, each rat received a continuous slow infusion of heparinized saline solution (approximately 400 I or 40 units of heparin per 24 hour period) to prevent clot formation. Additional "flushes" of the cannula with heparinized saline were carried out when the aortic pulse pressure (systolic minus diastolic) was less than 25 mm Hg.
CADCS: The pulsatile blood pressure and heart rate of each of 32 rats was monitored every minute by means of two in-laboratory microcomputers communicating directly with a data concentrator computer. The data were first stored on the data concentrator disk and the transferred to a magnetic tape for analysis and report generation by the main research computer. The overall scheme involved modulating the primary signal from the pressure transducer, generating the primary data set of the one-minute values for systolic, diastolic, and mean blood pressures and heart rate by the in-lab microcomputer and the storage, analysis, and report generation by the main research computer.
The transducers were connected to analog signal conditioning modules. The modules provided a regulated excitation voltage for the transducers, amplification as required to interface the microprocessors and an active low pass filter to compensate for the pressure wave form distortion produced by the fexible, fluid filled, narrow cannula. The distortion was 22-26 Hz and this provided a reliable estimate of both systolic and diastolic blood pressure.
The microcomputers (one for each of the two groups of 16 rats) were connected to the input components through the module interface units, an analog-to-digital converter for the pressure wave form signal and the digital inputs for the dose and event marker switches. The microcomputer controlled the sequential acquisition of data from the modular interface units through an internal synchronous time-of- day clock/time base generator. […]

Setting [1] is: 10 mg/kg, Hour 5, conscious rat.
Where [2] appears, read: 10 mg/kg, Hour 3, conscious rat.

SMILES strings stand for the structures.

The compound `C[C@H]1Oc2ccccc2C[C@@H]1Nc1ncnc2c1ncn2[C@@H]1O[C@H](CO)[C@@H](O)[C@H]1O` (relative stereo) [Example 8, N^l-[trans-2-Methyl,-3-chromanylamino]adenosine] yielded an IC50 at adenosine A1 receptor of 45 nM.
On the same count and under the same terms, with `OC[C@H]1O[C@@H](n2cnc3c(NC4CCOc5ccccc54)ncnc32)[C@H](O)[C@@H]1O` (stereo partly drawn) [Example 1] the figure was 88 nM; with `OC[C@H]1O[C@@H](n2cnc3c(NC4CSc5ccccc5C4)ncnc32)[C@H](O)[C@@H]1O` (stereo partly drawn) [Example 2], 6.33 nM; with `COc1ccc2c(c1)OCC(Nc1ncnc3c1ncn3[C@@H]1O[C@H](CO)[C@@H](O)[C@H]1O)C2` (stereo partly drawn) [Example 3], 14.2 nM.
Same read-out and setting: under `OC[C@H]1O[C@@H](n2cnc3c(NC4COc5ccccc5C4)ncnc32)[C@H](O)[C@@H]1O` (stereo partly drawn) [Example 4, N^6-[3-Chromanylamino]adenosine] stands 20 nM.
`OC[C@H]1O[C@@H](n2cnc3c(NC4COc5c(Cl)cccc5C4)ncnc32)[C@H](O)[C@@H]1O` (stereo partly drawn) [Example 5] came in with an HR change with conscious rat (setting [1]) of 0%. Moreover, on adenosine A1 receptor, the IC50 is 17 nM.
In turn, `COc1ccc2c(c1)CC(Nc1ncnc3c1ncn3[C@@H]1O[C@H](CO)[C@@H](O)[C@H]1O)CO2` (stereo partly drawn) [Example 6] displayed an IC50 on adenosine A1 receptor of 4.9 nM.
Turning to `CC1Oc2ccccc2CC1Nc1ncnc2c1ncn2C1OC(CO)C(O)C1O` (stereo not drawn) [Example 7, N^6-[cis-2-Methyl-3-chromanylamino]adenosine], the IC50 on adenosine A1 receptor is 7.8 nM.
The compound `Cc1cc2c(cc1C)OCC(Nc1ncnc3c1ncn3[C@@H]1O[C@H](CO)[C@@H](O)[C@H]1O)C2` (stereo partly drawn) [Example 9, N^6-[6,7-Dimethyl-3-chromanylamino]adenosine] came in with an HR change in the experiment on conscious rat (10 mg/kg, Hour 7, conscious rat) of 0%. The compound also returned an IC50 on adenosine A1 receptor of 8.1 nM.
Compound `Cc1ccc2c(c1C)OCC(Nc1ncnc3c1ncn3[C@@H]1O[C@H](CO)[C@@H](O)[C@H]1O)C2` (stereo partly drawn) [Example 10, N^6-[7,8-Dimethyl-3-chromanylamino]adenosine] showed an HR change in the experiment with conscious rat (3 mg/kg, Hour 5, conscious rat) of 0%. This compound showed an IC50 at adenosine A1 receptor of 27 nM.
Consider `Cc1ccc2c(c1C)OC(C)C(Nc1ncnc3c1ncn3[C@@H]1O[C@H](CO)[C@@H](O)[C@H]1O)C2` (stereo partly drawn) [Example 11], for which the HR change in the experiment with conscious rat (setting [2]) and with conscious rat (setting [1]) was 0% in each case. This compound showed an IC50 on adenosine A1 receptor of 32 nM.
On adenosine A1 receptor, `CC(C)(C)c1ccc2c(c1)OCC(Nc1ncnc3c1ncn3[C@@H]1O[C@H](CO)[C@@H](O)[C@H]1O)C2` (stereo partly drawn) [Example 13, N^6-[7-t-Butyl-3-chromanylamino)adenosine] registered an IC50 of 160 nM.
Turning to `COc1cc(OC)c2c(c1)OC(C)(C)CC2Nc1ncnc2c1ncn2[C@@H]1O[C@H](CO)[C@@H](O)[C@H]1O` (stereo partly drawn) [Example 14], the MAP change in the experiment with conscious rat (setting [2]) is on record as 0%. In addition, the concentration for half-maximal inhibition (IC50) on adenosine A1 receptor worked out at 4930 nM.
For `OC[C@H]1O[C@@H](n2cnc3c(NC4CCSc5ccccc54)ncnc32)[C@H](O)[C@@H]1O` (stereo partly drawn) [Example 15], at adenosine A1 receptor, the IC50 came out at 56.2 nM.
Consider `O=S1(=O)CCC(Nc2ncnc3c2ncn3[C@@H]2O[C@H](CO)[C@@H](O)[C@H]2O)c2ccccc21` (stereo partly drawn) [Example 16, N^6-[4-Benzothiopyran-1,1-dioxideamino]adenosine], for which the IC50 at adenosine A1 receptor amounted to 622 nM.
